The source made the active and inactive calls. The calls are words filed in the database; no cut-off is given here.
Tests used:
SK-BR-3 = test: Growth inhibition of human SKBR3 cells after 72 hrs; type: functional, cell-based; conditions: SK-BR-3, 72 h
BXPC-3 [1] = test: Induction of apoptosis in human BxPC3 cells assessed as accumulation at sub-G0/G1 phase at 20 uM after 24 hrs by propidium iodide staining based flow cytometry (reference value: 2.3%); type: functional
BXPC-3 [2] = test: Induction of apoptosis in human BxPC3 cells assessed as accumulation at sub-G0/G1 phase at 20 uM after 48 hrs by propidium iodide staining based flow cytometry (reference value: 2.8%); type: functional
BXPC-3 [3] = test: Induction of apoptosis in human BxPC3 cells assessed as accumulation at sub-G0/G1 phase at 20 uM after 72 hrs by propidium iodide staining based flow cytometry (reference value: 3.4%); type: functional
BXPC-3 [4] = test: Induction of apoptosis in human BxPC3 cells assessed as accumulation at sub-G0/G1 phase harboring pSFFV-Bcl-XL at 20 uM after 24 hrs by propidium iodide staining based flow cytometry (reference value: 1.2%); type: functional
BXPC-3 [5] = test: Induction of apoptosis in human BxPC3 cells assessed as accumulation at sub-G0/G1 phase harboring pSFFV-Bcl-XL at 20 uM after 48 hrs by propidium iodide staining based flow cytometry (reference value: 1.3%); type: functional
BXPC-3 [6] = test: Induction of apoptosis in human BxPC3 cells assessed as accumulation at sub-G0/G1 phase harboring pSFFV-Bcl-XL at 20 uM after 72 hrs by propidium iodide staining based flow cytometry (reference value: 1.3%); type: functional
PANC-1 [7] = test: Induction of apoptosis in human PANC1 cells assessed as accumulation at sub-G0/G1 phase at 20 uM after 24 hrs by propidium iodide staining based flow cytometry (reference value: 0.6 to 0.7%); type: functional
PANC-1 [8] = test: Induction of apoptosis in human PANC1 cells assessed as accumulation at sub-G0/G1 phase at 20 uM after 48 hrs by propidium iodide staining based flow cytometry (reference value: 0.2 to 2.9%); type: functional
PANC-1 [9] = test: Induction of apoptosis in human PANC1 cells assessed as accumulation at sub-G0/G1 phase at 20 uM after 72 hrs by propidium iodide staining based flow cytometry (reference value: 1.6 to 3.2%); type: functional
PK9 [10] = test: Induction of apoptosis in human PK9 cells assessed as accumulation at sub-G0/G1 phase at 20 uM after 24 hrs by propidium iodide staining based flow cytometry (reference value: 2.2%); type: functional
PK9 [11] = test: Induction of apoptosis in human PK9 cells assessed as accumulation at sub-G0/G1 phase at 20 uM after 48 hrs by propidium iodide staining based flow cytometry (reference value: 3.8%); type: functional
PK9 [12] = test: Induction of apoptosis in human PK9 cells assessed as accumulation at sub-G0/G1 phase at 20 uM after 72 hrs by propidium iodide staining based flow cytometry (reference value: 4%); type: functional
[13] = Induction of apoptosis in HPNE cells assessed as accumulation at sub-G0/G1 phase at 20 uM after 24 hrs by propidium iodide staining based flow cytometry (reference value: 0.6%); type: cell-based; conditions: human
[14] = Induction of apoptosis in HPNE cells assessed as accumulation at sub-G0/G1 phase at 20 uM after 48 hrs by propidium iodide staining based flow cytometry (reference value: 0.7%); type: cell-based; conditions: human
[15] = Induction of apoptosis in HPNE cells assessed as accumulation at sub-G0/G1 phase at 20 uM after 72 hrs by propidium iodide staining based flow cytometry (reference value: 6.6%); type: cell-based; conditions: human
PANC-1 [16] = test: Induction of apoptosis in human PANC1 cells assessed as accumulation at sub-G0/G1 phase at 10 uM after 24 hrs by propidium iodide staining based flow cytometry (reference value: 0.6 to 0.7%); type: functional
PANC-1 [17] = test: Induction of apoptosis in human PANC1 cells assessed as accumulation at sub-G0/G1 phase at 10 uM after 48 hrs by propidium iodide staining based flow cytometry (reference value: 0.2 to 2.9%); type: functional
PANC-1 [18] = test: Induction of apoptosis in human PANC1 cells assessed as accumulation at sub-G0/G1 phase at 10 uM after 72 hrs by propidium iodide staining based flow cytometry (reference value: 1.6 to 3.2%); type: functional
BXPC-3 [19] = test: Induction of apoptosis in human BxPC3 cells assessed as accumulation at sub-G0/G1 phase at 10 uM after 24 hrs by propidium iodide staining based flow cytometry (reference value: 1.8%); type: functional
BXPC-3 [20] = test: Induction of apoptosis in human BxPC3 cells assessed as accumulation at sub-G0/G1 phase at 10 uM after 48 hrs by propidium iodide staining based flow cytometry (reference value: 2.8%); type: functional
BXPC-3 [21] = test: Induction of apoptosis in human BxPC3 cells assessed as accumulation at sub-G0/G1 phase at 10 uM after 72 hrs by propidium iodide staining based flow cytometry (reference value: 3.4%); type: functional
BXPC-3 [22] = test: Induction of apoptosis in human BxPC3 cells harboring pSFFV-Bcl-XL assessed as accumulation at sub-G0/G1 phase at 10 uM after 24 hrs by propidium iodide staining based flow cytometry (reference value: 1.5%); type: functional
BXPC-3 [23] = test: Induction of apoptosis in human BxPC3 cells harboring pSFFV-Bcl-XL assessed as accumulation at sub-G0/G1 phase at 10 uM after 48 hrs by propidium iodide staining based flow cytometry (reference value: 1.9%); type: functional
BXPC-3 [24] = test: Induction of apoptosis in human BxPC3 cells harboring pSFFV-Bcl-XL assessed as accumulation at sub-G0/G1 phase at 10 uM after 72 hrs by propidium iodide staining based flow cytometry (reference value: 2%); type: functional
PK9 [25] = test: Induction of apoptosis in human PK9 cells assessed as accumulation at sub-G0/G1 phase at 10 uM after 24 hrs by propidium iodide staining based flow cytometry (reference value: 2.2%); type: functional
PK9 [26] = test: Induction of apoptosis in human PK9 cells assessed as accumulation at sub-G0/G1 phase at 10 uM after 48 hrs by propidium iodide staining based flow cytometry (reference value: 3.8%); type: functional
PK9 [27] = test: Induction of apoptosis in human PK9 cells assessed as accumulation at sub-G0/G1 phase at 10 uM after 72 hrs by propidium iodide staining based flow cytometry (reference value: 4%); type: functional
[28] = Induction of apoptosis in HPNE cells assessed as accumulation at sub-G0/G1 phase at 10 uM after 24 hrs by propidium iodide staining based flow cytometry (reference value: 0.6%); type: cell-based; conditions: human
[29] = Induction of apoptosis in HPNE cells assessed as accumulation at sub-G0/G1 phase at 10 uM after 48 hrs by propidium iodide staining based flow cytometry (reference value: 0.7%); type: cell-based; conditions: human
[30] = Induction of apoptosis in HPNE cells assessed as accumulation at sub-G0/G1 phase at 10 uM after 72 hrs by propidium iodide staining based flow cytometry (reference value: 6.6%); type: cell-based; conditions: human
BXPC-3 [31] = test: Growth inhibition of human BxPC3 cells after 72 hrs by XTT assay; type: functional, cell-based; conditions: BXPC-3, 72 h
PANC-1 [32] = test: Growth inhibition of human PANC1 cells after 72 hrs by XTT assay; type: functional, cell-based; conditions: PANC-1, 72 h
[33] = Induction of apoptosis in HPNE cells at 5 to 40 uM after 24 to 72 hrs by Annexin V/7-AAD staining based flow cytometry; type: cell-based; conditions: human
Fibroblast = test: Induction of apoptosis in human primary fibroblasts at 5 to 40 uM after 24 to 72 hrs by Annexin V/7-AAD staining based flow cytometry; type: cell-based
PK9 [34] = test: Induction of apoptosis in human PK9 cells at 5 to 40 uM after 24 to 72 hrs by Annexin V/7-AAD staining based flow cytometry; type: functional, cell-based

| IC50 (SK-BR-3) | Structure (SMILES) | Activity (BXPC-3 [1]) | Activity (BXPC-3 [2]) | Activity (BXPC-3 [3]) | Activity (BXPC-3 [4]) | Activity (BXPC-3 [5]) | Activity (BXPC-3 [6]) | Activity (PANC-1 [7]) | Activity (PANC-1 [8]) | Activity (PANC-1 [9]) | Activity (PK9 [10]) | Activity (PK9 [11]) | Activity (PK9 [12]) | Activity [13] | Activity [14] | Activity [15] | Activity (PANC-1 [16]) | Activity (PANC-1 [17]) | Activity (PANC-1 [18]) | Activity (BXPC-3 [19]) | further results |
| --- | --- | --- | --- | --- | --- | --- | --- | --- | --- | --- | --- | --- | --- | --- | --- | --- | --- | --- | --- | --- | --- |
| 15 µM | O[C@H]1[C@@H](O)CN[C@@H]1COCCCCCCCC/C=C/c1ccc(Oc2ccccc2)cc1 | 8.7% | 16.2% | 20.3% | 4.4% | 4.5% | 4.3% | 9.9% | 33.1% | 29.3% | 4.6% | 5.2% | 6.2% | 79.1% | 81.4% | 85.8% | 3.1% | 3.8% | 4.4% | 3.9% | Activity (BXPC-3 [20]): 6.6%; Activity (BXPC-3 [21]): 8.3%; Activity (BXPC-3 [22]): 3.6%; Activity (BXPC-3 [23]): 4.8%; Activity (BXPC-3 [24]): 4.8%; Activity (PK9 [25]): 3.4%; Activity (PK9 [26]): 4.4%; Activity (PK9 [27]): 3.1%; Activity [28]: 6.5%; Activity [29]: 6.8%; Activity [30]: 7.9% |
| 50 µM | CCCCCCCCCCCCCCCCOC[C@H]1NC[C@H](O)[C@@H]1O | 7.1% | 16.9% | 21.7% | 4.4% | 4.8% | 7.6% | 4.4% | 4.8% | 12.8% | 2.6% | 4.6% | 2.8% | 53.9% | 62.1% | 66.8% | 3.1% | 3.5% | 4.1% | 3.5% | Activity (BXPC-3 [20]): 5.7%; Activity (BXPC-3 [21]): 7.5%; Activity (BXPC-3 [22]): 3.9%; Activity (BXPC-3 [23]): 4.2%; Activity (BXPC-3 [24]): 5.8%; Activity (PK9 [25]): 2%; Activity (PK9 [26]): 3.5%; Activity (PK9 [27]): 2.6%; Activity [28]: 2.6%; Activity [29]: 2.2%; Activity [30]: 3.1% |
|  | Cl.NCC(=O)N1CCC[C@H]1COCCCCCCCCC/C=C/c1ccc(-c2ccccc2)cc1 |  |  |  |  |  |  | 1.6% | 13.3% | 30.5% |  |  |  |  |  |  | 2% | 16.6% | 35.8% |  | IC50 (BXPC-3 [31]): 7 µM; IC50 (PANC-1 [32]): 6.3 µM; Activity [33]: Toxic; Activity (Fibroblast): Toxic; Activity (PK9 [34]): Active |

— ChEMBL document CHEMBL4196088, “Induction of cell killing and autophagy by amphiphilic pyrrolidine derivatives on human pancreatic cancer cells” (Eur J Med Chem, 2018)
